Test results as given in PMC7617889, “Molecular basis for pH sensing in the KDEL trafficking receptor” (Structure (London, England : 1993), 2024).
Where no end group is shown, it is not given here.

How the values were obtained:
[1] = system: HeLa S3 cells (endogenous KDEL receptor); assay: ER secretion assay (western blot of cells and media); format: cell-based, human; conditions: for ER retention of the mScarlet reporter (secretion to media): 24 hr expression, western blot of cell extracts and medium, n = 3, result in words; for secretion of endogenous luminal ER chaperones (BiP, PDI, ERP44) caused by the exogenous signal variant: western blot, n = 3, compared with signals having leucine at −1, result in words
Source text: To further explore if disturbing the water will disrupt the binding, the terminal leucine at the −1 position in the HDEL ligand was alchemically changed to phenylalanine or alanine (Figures 3E and 3F). Phenylalanine also stabilized the two waters in the binding pocket, resulting in a high unbinding free energy. Due to its small size, alanine, however, was unable to stabilize the water, resulting in lower binding free energy. To validate these calculations, we tested the impact of signal variants at the −1 position on both retrieval of the endogenous KDELR from the Golgi to the ER and ER retention of a reporter protein carrying the signal variant in a cellular assay. To measure the role of the −1 position on retrieval of the endogenous KDELR to the ER, cells were transfected with mScarlet-reporters carrying −1 alanine (H/KDEA) or phenylalanine (H/KDEF) variants of either the HDEL or KDEL retrieval signals (Figure 4A). […] Finally, the effect of −1 variant signals on KDELR retrieval of endogenous ER chaperones was also tested. […] This effect was reduced for HDEF or KDEF signals and lost entirely for HDEA or KDEA signals (Figures 4B and 4D).
Figure 4 The terminal amino acid modulates recognition of the ERS by the KDEL receptor (A) Endogenous KDEL receptor redistribution was measured in COS-7 cells in the absence (-ligand) or presence of H/KDEL/F/A (mScarlet-xDEx^sec). TGN46 was used as a Golgi marker. The scale bar is 10 μm. The mean differences for H/KDEL/F/A comparisons against the shared no-ligand control are shown as Cummings estimation plots. The individual data points for the fraction of KDEL receptor fluorescence in the Golgi are plotted on the upper axes. On the lower axes, mean differences are plotted as bootstrap sampling distributions. Each mean difference is depicted as a dot. Each 95% confidence interval is indicated by the ends of the vertical error bars. (B) Cells and media collected from HeLa S3 cells expressing the xDEx variants (mScarlet-K/HDEx^sec) indicated in the figure were western blotted for resident ER chaperons and KDEL receptor.*unspecific bands (C) K/HDEx secretion to media bar graph showing mean ± SEM (n = 3). (D) Bar graph of endogenous ER chaperones secreted after challenged with different retrieval signals as measured by western blot showing mean ± SEM (n = 3).
ER chaperone secretion assays were performed as described in Gerondopoulos et al.[11] Briefly HeLa S3 cells were transfected with mScarlet-ligand (+xDEL ligand) or pcDNA3.1 (− ligand), and allowed to express the respective proteins for 24 hr. The media were TCA precipitated and both cell and media were resuspended and boiled in SDS-PAGE sample buffer. All samples were analysed by Western blotting and signals on films were measured by densitometry in FIJI.[33] Data were plotted as bar graphs in GraphPad Prism.

[2] = target: T1, human KDELR1-GFP D9N (human) (UniProt P24390)
T1 sequence: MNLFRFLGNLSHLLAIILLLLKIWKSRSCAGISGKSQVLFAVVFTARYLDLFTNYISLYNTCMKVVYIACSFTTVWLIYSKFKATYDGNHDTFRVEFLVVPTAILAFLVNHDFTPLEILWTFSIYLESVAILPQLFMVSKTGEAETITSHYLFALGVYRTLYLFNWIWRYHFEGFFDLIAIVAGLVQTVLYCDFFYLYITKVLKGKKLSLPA

chicken KDELR = conditions: cited from earlier work
[3] = target: T2, Gallus gallus (Gg) KDELR2 (Gallus gallus, UniProt Q5ZKX9); assay: Peptide binding assay, competition of 3H-labelled peptide (filter binding, scintillation counting); conditions: competition of 3H-labelled peptide at 20 nM, 20 mM MES pH 5.4, 40 mM sodium chloride, 0.01% DDM 0.0005% CHS, 20°C, 10 min, mean, n = 3, read-out: affinity (mean IC50, Figure S3)
T2 construct: GFP-His fusion (C); made in house; host or cells: Saccharomyces cerevisiae strain BY5460
T2 sequence (Q5ZKX9 1-212): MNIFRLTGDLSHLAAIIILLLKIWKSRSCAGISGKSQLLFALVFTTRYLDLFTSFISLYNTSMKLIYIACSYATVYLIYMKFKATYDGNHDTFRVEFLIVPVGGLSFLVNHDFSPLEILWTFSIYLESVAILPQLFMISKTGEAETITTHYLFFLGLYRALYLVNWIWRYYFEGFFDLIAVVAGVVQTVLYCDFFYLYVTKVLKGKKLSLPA
Description: Binding assays were performed as detailed in Bräuer, P. et al.[19] WT or mutant protein (5 μL) in 20 mM MES pH 5.4, 40 mM Sodium Chloride, 0.01% DDM 0.0005% CHS was incubated with 5 μL of 3H-TAEHDEL (Cambridge Research Biochemicals, UK) at 20 nM at 20°C for 10 min. Using a vacuum manifold, the reaction was then filtered through a 0.22 μm mixed cellulose ester filters (Millipore, USA). Filters were washed with 2 x 0.5 mL cold buffer. The amount of peptide remaining bound was measured using scintillation counting in Ultima Gold (Perkin Elmer). Experiments were performed at least three times, independently, to generate an overall mean and standard deviation (s.d).
Figure S3. Affinity of different cargo signals, related to Figure 5. Mean IC50 values calculated for the TAEHDEF and TAEHDEL peptides competing […] peptide. Error bars are standard deviation of the mean (n = 3).
(1 picture or pasted object on this page, not shown here)

[4] = system: human KDELR1-GFP D9N in COS-7 cells; assay: Retrieval assay (KDEL receptor redistribution Golgi to ER); format: cell-based; conditions: KDELR-GFP D9N vs WT, mScarlet ligand
Source text: Figure 6 Effect of the water on proton transfer between Asp9 and His12 (A) In the bound state, a proton could be transferred from the histidine (His12/H12) to the aspartate (Asp9/D9) through the crystallographic water. A similar proton transfer can also be made in the apo state. (B) In the apo and bound state, the free energy barrier for the proton transfer (the center of excess charge) from the histidine to aspartate is similar. A larger energy barrier is observed for the proton transfer from aspartate back to the histidine in the bound state. (C) WT, D9A and D9N-mutant KDEL receptors redistribution in COS-7 cells in the absence (-ligand) or presence of K/R/HDEL (mScarlet-xDEL^sec) ligand. TGN46 was used as a Golgi marker. […] (D) The fraction of wild-type and H12A, D9A, and D9N-mutant KDEL receptors localized to the Golgi was measured before (no ligand) and after challenge with different retrieval signals (K/R/HDEL) and is shown as Cummings estimation plots. […]
Retrieval assays were performed as described in Gerondopoulos et al.[11] […] The signal for the KDEL receptor (integrated pixel intensity) was measured in individual cells using FIJI[33] for the Golgi region defined by the TGN46 Golgi marker and for the entire cell in the presence (+) and absence (-) of ligand. The fraction of KDEL receptor in the Golgi apparatus was calculated by dividing the Golgi signal by the total cell signal. […]

TAEKDEL peptide = conditions: cited from earlier work
TAEHDEL peptide = conditions: cited from earlier work

In the case of “KDEF^sec: hGHss-mScarlet-H. sapiens BiP639-654 L654F secreted reporter (GPPPTGEEDTAEKDEF; not fully specified (N-terminus))”, the “ER retention of the mScarlet reporter (secretion to media)” value [1] is reported as “retained more efficiently than the alanine variants but less efficiently than when leucine is present” and the “secretion of endogenous luminal ER chaperones (BiP, PDI, ERP44) caused by the exogenous signal variant” value (“secretion … by the exogenous signal variant” for short) [1] is reported as “reduced”.

With “HDEF [HDEL ligand with terminal leucine changed to phenylalanine (simulation)]” the “ER retention of the mScarlet reporter (secretion to media)” value [1] was “retained more efficiently than the alanine variants but less efficiently than when leucine is present” and the “secretion … by the exogenous signal variant” value [1] was “reduced”.

In the case of “hGHss-mScarlet-H. sapiens BiP639-654 K651H (HDEL^SEC) (from UniProt P11021 639-654)”, the ligand-induced redistribution of KDELR1-GFP from the Golgi in COS-7 cells (cell retrieval assay), HDEL ligand [2] is reported as 80 % WT levels.

For “KDEA [KDEL ligand with alanine at the −1 position (simulation)]”, the “secretion … by the exogenous signal variant” value [1] was “lost entirely”.

In the case of “TAEKDEL [ER-retrieval signal peptide with canonical KDEL, Cambridge peptides]”, the Kd (chicken KDELR) is listed as 1940 nM.

With TAEHDEL [TAEHDEL, reference compound] the IC50 [3] was 18000 nM.

For “HDEA [HDEL ligand with terminal leucine changed to alanine (simulation)]”, the “secretion … by the exogenous signal variant” value [1] was “lost entirely”.

In the case of HDEL, the “retrieval of cargo by the Asp9Asn receptor variant relative to WT” value [4] is given as ~ 80 % WT levels and the Kd (chicken KDELR) is given as 240 nM.

For “RDEL [RDEL variant of the retrieval signal peptide]”, the Kd (chicken KDELR) is listed as 2710 nM.

In the case of KDEL receptor (from UniProt Q5ZKX9), the Kd (TAEKDEL peptide) is listed as 1940 nM and the Kd (TAEHDEL peptide) is listed as 240 nM.

For TAEHDEF [TAEHDEF], the IC50 [3] was 23000 nM.

In the case of Lys-Asp-Glu-Leu [KDEL], the Kd (chicken KDELR) is given as 1940 nM.
